Results published in patent publication US20080009546A1 (Chevron U.S.A. Inc., priority 2005, published 2008).
Where two headings read alike, the source gives them in different places.

Columns and labels:
C57/BL6 male mice [1] = assay: Pentylenetetrazol (PTZ)-induced seizure/death model; format: in vivo, mouse; conditions: for PTZ-induced death / # of deaths within 30 min: PTZ 100 mg/kg; for # of deaths within 30 min / # mice with L3 seizure / # mice with L4 seizure: 6 mice; for Time to death: mice that died within 30 min
Description: Although the protection against death is the key endpoint, other effects of the compounds on PTZ-induced seizures were also assessed using multiple parameters. For the mice that did die within the 30 minute observation window, the time of death was also compared. […] The seizure occurrence rate, onset time and number of level 3 (L3) seizure (repetitive seizures but the animal can still stand) and level 4 (L4) seizure (repetitive seizures and the animal loses righting) are also analyzed. The MDT compound (30 mg/kg) treated groups show a certain degree of improvement compared to control. No data from MK801 or memantine were included because the seizures occurring under these treatments are totally different from the control or MDT injected groups due to side effects (“high jumping”).

C57/BL6 male mice [2] = conditions: for MES-induced death: mice; for # of deaths / # of extensions: 6 mice
C57/BL6 male mice [3] = assay: Rotarod test (balance and coordination, side effects)
Description: The side effects of the compounds was primarily evaluated using the rotarod test, which mainly assesses the balancing and coordination of mice. The comparisons were made on fall time of the mice between the first measure (pre-treatment) and second measure taken 20 min after the drug/vehicle injection in the same group (paired t-test). […] Comparisons of the rotatod fall times after drug/vehicle dosing were made between drug treatment and control groups (unpaired t-test).

NMDA receptor = assay: Whole-cell voltage-clamp recordings of NMDA evoked currents in hypocretin neurons (hypothalamic slices); format: cell-based, mouse; conditions: for inhibition of the peak amplitude of NMDA evoked currents: bath application, -60 mV, mean±SEM
[4] = tested on: primary neurons from rat cerebral cortex; assay: NMDA-induced LDH release assay in primary cortical neurons (neuroprotection); format: cell-based
Description: The neuroprotective properties of drugs have been studied in vitro, using neurons cultured from cortex, cerebellum or retina. […] Neurotoxicity is determined in this assay by measuring lactate dehydrogenase (LDH), a method which is simple, accurate and reproducible. We conducted pilot studies to test if poly-lysine-coated plates would be suitable as a matrix upon which to plate fetal neurons, compared to astrocyte-coated plates. We also compared the use of growth medium to neurobasal medium supplemented with B27 in the pilot experiments. The concentrations of NMDA (300-500 μM), glycine (10-50 μM), and memantine (10-100 μM) were varied, and optimum concentrations and times determined from these pilot studies were then chosen for the main study. The assay is described below.
Fetal rat neocortical cells were cultured on a mouse astroglial feeder layer. To obtain mouse astroglial cells for the feeder layer, cortices were harvested from 1-day old Swiss Webster mice (Charles River, Hollister, Calif.) according to the procedure described by Rose et al (1993). After dissecting cortices in ice-cold dissecting medium, they were minced and incubated in 0.09% trypsin in media stock for 1 hr, followed by resuspension in growth medium containing 10% equine serum and 10% fetal bovine serum. A single-cell suspension was obtained by triturating through fire-bored glass pipettes, and the resulting cell suspension was plated at a density of 0.5-0.75 hemispheres/24-well plate/9.6 ml, with 0.4 ml/well. Plates were incubated in a humidified incubator at 37° C., 5% CO2. Astroglial cells become confluent in about 2-3 weeks, at which time these cultures are ready to be used as feeder layers upon which neuronal cultures can be plated. Neuronal cells were obtained from gestational Sprague-Dawley rats E16-E18, using a similar dissection procedure. Rat embryos were dissected to obtain cortical tissue, which was plated as a single-cell suspension at a density of 1.4 hemispheres/24-well plate/9.6 ml, with 0.4 ml/well. These cells were plated on the existing astroglial feeder layer, and were incubated at 37° C., 5% CO2. After 5 days in culture, cytosine arabinoside (10 μM) was added to the wells to inhibit glial cell proliferation, and after 24 hours, the medium was replaced with fresh growth medium. Cells were fed with fresh growth medium every 2 days, until the experiments were performed. For coating plates with poly-lysine, we used poly-d-lysine hydrobromide (Sigma Cat # P7280) at a concentration of 0.1 mg/ml to coat each well using a minimum volume of 0.2 ml/well. After coating for 5 minutes, the solution was aspirated and wells were rinsed thoroughly with sterile tissue culture grade water. After drying for 2 hours, plates were ready for use. Neuronal cultures were plated onto poly-lysine-coated plates at the same density as above. For the pilot study, some of the cultures were fed with 1:1 ratio of growth medium: neurobasal medium (GIBCO)+B-27 supplement (2%), while the rest of the cultures were fed with growth medium alone (Losi et al., 2006). For the main study, we used astroglial feeder layers to plate the neuronal cultures, and used a mix (1:1) of growth medium with neurobasal medium+B-27 supplement for feeding the cultures.
After 11-14 days in culture, neuronal cells were confluent and experiments were performed. Cells were washed twice using sterile Locke's buffer (154 mM NaCl, 5.6 mM KCl, 2.3 mM CaCl2, 3.6 mM NaHCO3, 5.5 mM D-glucose, 5 mM HEPES, pH 7.4), and then exposed to the various treatment compounds. […] After 15 minutes, cultures were washed twice and incubated overnight in media stock. After 24 hours, supernatants and lysates were collected to measure LDH activity. LDH activity was measured by the reduction of NAD, which was utilized in the stoichiometric conversion of a tetrazolium dye using a kit (Sigma TOX-7). Supernatants were removed from the wells and centrifuged before LDH measurements. The adherent cells were lysed to obtain total LDH. […]

[5] = NMDA 300 uM + MK801 1 uM, Plate #4, poly-lysine-coated rat neurons, GM/NB + B-27 fed, 24 hour incubation
[6] = NMDA 300 uM + MK801 1 uM, Plate #5, astrocyte-coated rat neurons, GM fed, 24 hour incubation
[7] = NMDA 300 uM + MK801 1 uM, astrocyte-coated rat neurons, GM/NB + B-27 fed, 24 hour incubation
[8] = NMDA 500 μM + MK801 1 μM, astrocyte-coated rat neurons, GM/NB + B-27 fed, 21 hour incubation
[9] = NMDA 500 uM + MK801 1 uM, poly-lysine-coated rat neurons, GM/NB + B-27 fed, 40 hour incubation

Structure (SMILES): C[C@]12N[C@H](Cc3ccccc31)c1ccccc12 [MK-801, reference compound]
- Mortality rate (C57/BL6 male mice [1]; 1.0 mg/kg i.p.): 0
- PTZ-induced death (C57/BL6 male mice [1]; 1 mg/kg i.p.): full protection
- # of deaths within 30 min (C57/BL6 male mice [1]; 1.0 mg/kg i.p.): 0
- Extension rate (C57/BL6 male mice [2]; 0.5 mg/kg i.p.): 0.50
- Mortality rate (C57/BL6 male mice [2]; 0.5 mg/kg i.p.): 0.50
- MES-induced death (C57/BL6 male mice [2]; 0.5 mg/kg i.p.): little effect compared to control
- # of deaths (C57/BL6 male mice [2]; 0.5 mg/kg i.p.): 3
- # of extensions (C57/BL6 male mice [2]; 0.5 mg/kg i.p.): 3
- hyperactivity (side effect) (C57/BL6 male mice [3]; 1 mg/kg i.p.): observed
- inhibition of the peak amplitude of NMDA evoked currents (NMDA receptor; 100 nM): 58±9.4%
- % (Control Wash = 100) [4, 5]: 143%
- Secreted LDH (Avg) [4, 5]: 0.62
- Secreted/(total + secreted) (Avg) [4, 5]: 15.63
- Total LDH (Avg) [4, 5]: 3.34
- % (Control Wash = 100) [4, 6]: 92%
- Secreted LDH (Avg) [4, 6]: 0.18
- Secreted/(total + secreted) (Avg) [4, 6]: 5.43
- Total LDH (Avg) [4, 6]: 3.18
- % (Control Wash = 100) [4, 7]: 241%
- Secreted LDH (Avg) [4, 7]: 0.74
- Secreted/(total + secreted) (Avg) [4, 7]: 17.39
- Total LDH (Avg) [4, 7]: 3.51
- % (Control Wash = 100) [4, 8]: 125%
- Secreted LDH (Avg) [4, 8]: 0.43
- Secreted/(total + secreted) (Avg) [4, 8]: 10.39
- Total LDH (Avg) [4, 8]: 3.71
- % (Control Wash = 100) [4, 9]: 96%
- Secreted LDH (Avg) [4, 9]: 0.36
- Secreted/(total + secreted) (Avg) [4, 9]: 11.04
- Total LDH (Avg) [4, 9]: 2.90

Structure (SMILES): CC12CC3(N)CC4C5CC(CC41)CC2C5C3 [MDT-22, 1-methyl-9-aminodiamantane]
- # L3 per mouse (C57/BL6 male mice [1]; 10 mg/kg i.p.): 2.00 ± 0.58
- # L4 per mouse (C57/BL6 male mice [1]; 10 mg/kg i.p.): 3.85 ± 2.28
- L3 onset time (C57/BL6 male mice [1]; 10 mg/kg i.p.): 2.80 ± 1.00 min
- L3 seizure rate (C57/BL6 male mice [1]; 10 mg/kg i.p.): 0.50
- L4 onset time (C57/BL6 male mice [1]; 10 mg/kg i.p.): 7.90 ± 1.70 min
- L4 seizure rate (C57/BL6 male mice [1]; 10 mg/kg i.p.): 1.00
- Mortality rate (C57/BL6 male mice [1]; 10 mg/kg i.p.): 1.00
- # mice with L3 seizure (C57/BL6 male mice [1]; 10 mg/kg i.p.): 3
- # mice with L4 seizure (C57/BL6 male mice [1]; 10 mg/kg i.p.): 6
- # of deaths within 30 min (C57/BL6 male mice [1]; 10 mg/kg i.p.): 6
- Time to death (C57/BL6 male mice [1]; 10 mg/kg i.p.): 9.60 ± 1.80 min
- # L3 per mouse (C57/BL6 male mice [1]; 30 mg/kg i.p.): 1.67 ± 0.50
- # L4 per mouse (C57/BL6 male mice [1]; 30 mg/kg i.p.): 1.17 ± 0.19
- L3 onset time (C57/BL6 male mice [1]; 30 mg/kg i.p.): 5.10 ± 2.30 min
- L3 seizure rate (C57/BL6 male mice [1]; 30 mg/kg i.p.): 1.00
- L4 onset time (C57/BL6 male mice [1]; 30 mg/kg i.p.): 10.20 ± 3.00 min
- L4 seizure rate (C57/BL6 male mice [1]; 30 mg/kg i.p.): 1.00
- Mortality rate (C57/BL6 male mice [1]; 30 mg/kg i.p.): 0.67
- # mice with L3 seizure (C57/BL6 male mice [1]; 30 mg/kg i.p.): 6
- # mice with L4 seizure (C57/BL6 male mice [1]; 30 mg/kg i.p.): 6
- # of deaths within 30 min (C57/BL6 male mice [1]; 30 mg/kg i.p.): 4
- Time to death (C57/BL6 male mice [1]; 30 mg/kg i.p.): 7.70 ± 2.10 min
- PTZ-induced death (C57/BL6 male mice [1]; 10 and 30 mg/kg i.p., 30 min observation): a certain reduction in PTZ-induced death
- Extension rate (C57/BL6 male mice [2]; 10 mg/kg i.p.): 1.00
- Mortality rate (C57/BL6 male mice [2]; 10 mg/kg i.p.): 0.50
- # of deaths (C57/BL6 male mice [2]; 10 mg/kg i.p.): 3
- # of extensions (C57/BL6 male mice [2]; 10 mg/kg i.p.): 6
- Extension rate (C57/BL6 male mice [2]; 30 mg/kg i.p.): 0.83
- Mortality rate (C57/BL6 male mice [2]; 30 mg/kg i.p.): 0.33
- # of deaths (C57/BL6 male mice [2]; 30 mg/kg i.p.): 2
- # of extensions (C57/BL6 male mice [2]; 30 mg/kg i.p.): 5
- MES-induced death (C57/BL6 male mice [2]; 10 and 30 mg/kg i.p.): dose dependent reduction in MES-induced death
- Fall Time (C57/BL6 male mice [3]; after, 20 min after 10 mg/kg i.p.): 44.58 ± 4.58 min
- Fall Time (C57/BL6 male mice [3]; after, 20 min after 30 mg/kg i.p.): 44.93 ± 5.45 min
- Fall Time (C57/BL6 male mice [3]; before (pre-treatment), 10 mg/kg group): 33.56 ± 3.91 min
- Fall Time (C57/BL6 male mice [3]; before (pre-treatment), 30 mg/kg group): 45.03 ± 6.02 min
- inhibition of the peak amplitude of NMDA evoked currents (NMDA receptor; 10 μM): 19±3.1%
- inhibition of the peak amplitude of NMDA evoked currents (NMDA receptor; 100 μM): 45±12.1%
- reversibility of inhibition of NMDA evoked currents upon washout (NMDA receptor; washout of the compound): reversible
- EC50 ([4]; Rattus norvegicus, Primary neuron, two experiments, 300 uM NMDA + 50 μM glycine 15 minutes, LDH after 24 hours, read-out: average EC50 (±SD), NMDA-induced LDH release): 56.5 ± 14.6 µM
